# According to patent publication US20260265304A1, “PEPTIDE INHIBITORS OF FOCAL ADHESION KINASE ACTIVITY AND USES THEREOF” (Arizona Board of Regents on Behalf of the University of …, priority 2019, published 2026):
# Where two headings read alike, the source gives them in different places. Positions of bridges follow the written chain, without caps; N, C: chain ends. Non-standard residues stand in square brackets, D forms with d. Residues, ends and D or L forms follow the SMILES beside them. R8 = C=CCCCCCC[C@@](C)(N)C(=O)O; S5 = C=CCCC[C@](C)(N)C(=O)O
# Assays:
# [1] = target: T1, FAK FAT domain (paxillin-FAT binding) (Homo sapiens, UniProt Q05397); test: Competition fluorescence polarization (FP) assay, inhibition of TAMRA-LD2 binding to FAT
# T1 construct: FP Buffer containing 20 μM FAT and 0.1 μM TAMRA-LD2
# T1 sequence (Q05397 914-1045 limits assumed): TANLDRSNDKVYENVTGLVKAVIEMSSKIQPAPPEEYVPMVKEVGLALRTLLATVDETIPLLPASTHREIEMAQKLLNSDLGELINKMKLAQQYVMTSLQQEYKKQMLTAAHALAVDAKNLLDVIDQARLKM
# Method: The FP assay buffer used was 20 mM Tris, 200 mM NaCl, 0.05% β-me, 0.1% Triton X-100, 5% glycerol, and 1× Halt protease inhibitor cocktail. […] Bodipy TMR FP optical module (2100-4100) was used as the mirror.
# Wells with no FAT were used as a baseline value which was subtracted from the raw values to produce ΔmP values. The plate was read at every hour for four hours to test for time differences in IC50. The titration data was processed through GraphPad Prism to produce a dose response curve and a calculated IC50 with standard error (SE). A four-parameter dose-response inhibition model was utilized and the bottom fit was constrained to the lower plateau of the curve. Ki was determined from the following calculation:
# P0 is the concentration of free protein and KD is calculated from the saturation curve. 150 is calculated by the following equation:
# where PT is the total protein concentration, LT is the total labeled-ligand concentration, P0 is the positive root of P0^2+(KD+LT)*P0−PT, PL0=P−P0, PL50=PL0/2, L0=LT-PL0, and L50=LT-PL50.
# [2] = target: T2, FAK FAT domain (biotinylated Avitag-FAT protein) (Homo sapiens, UniProt Q05397); test: Surface plasmon resonance (SPR) binding to immobilised FAT protein; conditions: for Kd: FAT protein immobilised, peptide 200 μM-0.01 μM, 1:1 binding model; for binding and inhibitory properties (SPR/FP) in words, compared to 1907: SAR discussion of SPR and FP data
# T2 construct: biotinylated Avitag-FAT protein was diluted in running buffer
# T2 sequence (Q05397 914-1045 limits assumed): T1 sequence (Q05397 914-1045 limits assumed)
# Method: SPR binding studies were performed on a ForteBio Pioneer FE SPR system. In brief, a SADH Streptavidin in Dextran Hydrogel biosensor (ForteBio) was docked onto the flow cell and preconditioned with two injections of 10 mM NaOH, 1 M NaCl for 1 min at 50 μL/min. […] Empty channel 2 served as the reference control. After achieving a stable baseline, a concentration series (200 μM-0.01 μM) of peptide was prepared in final running buffer (100 mM Tris-HCl, 200 mM NaCl, 0.05% Tween-20, 5% DMSO) and injected using the OneStep gradient injection method at a flow rate of 75 μL/min. […] Raw SPR data were appropriately processed in Qdat software (ForteBio) by normalizing the baseline prior to injection, aligning the channels, subtraction of the reference channel, and blank subtraction. Kinetic data were fitted to a pseudo-first order 1:1 interaction binding model using to calculate KD. In addition, a steady-state model and Req data points were used to validate the binding affinity. Visual inspection of the SPR sensograms was performed to verify appropriate model fitting, lack of mass transport effects, return to baseline, and lack of irregular kinetics.
Compound,Kd ([2]; read-out: SPR KD) [µM],Ki ([1]; read-out: FP Ki) [µM],"binding and inhibitory properties (SPR/FP) in words, compared to 1907 [2]",Ki [1] [µM],Kd ([2]; SPR KD) [µM]
CC(=O)N[C@@H](CC(N)=O)C(=O)N[C@@H](CC(C)C)C(=O)N[C@@H](CO)C(=O)N[C@@H](CCC(=O)O)C(=O)N[C@@H](CC(C)C)C(=O)N[C@@H](CC(=O)O)C(=O)N[C@@H](CCCNC(=N)N)C(=O)N[C@@]1(C)CCCC=CCCC[C@@](C)(C(=O)N[C@@H](CC(N)=O)C(N)=O)NC(=O)[C@H](CCC(=O)O)NC(=O)[C@H](CC(C)C)NC(=O)[C@H](CC(C)C)NC1=O [Peptide 2015] (Ac-NLSELDR[S5]LLE[S5]N-NH2; staple 8-12),,,did not show much activity compared to 1907,114,47.5
"CC(=O)N[C@@H](CC(N)=O)C(=O)N[C@@H](CC(C)C)C(=O)N[C@]1(C)CCCCCCC=CCCC[C@@](C)(C(=O)N[C@@H](CCC(=O)O)C(=O)N[C@@H](CC(C)C)C(=O)N[C@@H](CC(N)=O)C(N)=O)NC(=O)[C@H](CC(C)C)NC(=O)[C@H](CC(C)C)NC(=O)[C@H](C)NC(=O)[C@H](CC(=O)O)NC(=O)[C@H](CC(C)C)NC(=O)[C@H](C)NC1=O [Peptide 2010, Ac-NLR8ALDALLS5ELN-NH2] (Ac-NL[R8]ALDALL[S5]ELN-NH2; staple 3-10)",,,,68.5,12.6
"CC(=O)N[C@@H](CC(=O)O)C(=O)N[C@@H](CC(C)C)C(=O)N[C@]1(C)CCCCCCC=CCCC[C@@](C)(C(=O)N[C@@H](CCC(=O)O)C(=O)N[C@@H](CC(C)C)C(=O)N[C@@H](CC(=O)O)C(N)=O)NC(=O)[C@H](CC(C)C)NC(=O)[C@H](CC(C)C)NC(=O)[C@H](CCCNC(=N)N)NC(=O)[C@H](CC(=O)O)NC(=O)[C@H](CC(C)C)NC(=O)[C@H](CCC(=O)O)NC1=O [Peptide 1913, Ac-DLR8ELDRLLS5ELD-NH2] (Ac-DL[R8]ELDRLL[S5]ELD-NH2; staple 3-10)",13.7,21.8,,,
"CC(=O)N[C@@H](CC(N)=O)C(=O)N[C@@H](CC(C)C)C(=O)N[C@]1(C)CCCCCCC=CCCC[C@@](C)(C(=O)N[C@@H](CCC(N)=O)C(=O)N[C@@H](CC(C)C)C(=O)N[C@@H](CC(N)=O)C(N)=O)NC(=O)[C@H](CC(C)C)NC(=O)[C@H](CC(C)C)NC(=O)[C@H](CCCNC(=N)N)NC(=O)[C@H](CC(=O)O)NC(=O)[C@H](CC(C)C)NC(=O)[C@H](CCC(N)=O)NC1=O [Peptide 1910, Ac-NLR8QLDRLLS5QLN-NH2] (Ac-NL[R8]QLDRLL[S5]QLN-NH2; staple 3-10)",24.8,46.8,not as active as 1907,,
"CC(C)C[C@@H]1NC(=O)[C@H](CCCNC(=N)N)NC(=O)[C@H](CC(=O)O)NC(=O)[C@H](CC(C)C)NC(=O)[C@](C)(NC(=O)[C@H](CO)NC(=O)[C@H](CC(C)C)NC(=O)[C@@H](N)CC(N)=O)CCCCCCC=CCCC[C@@](C)(C(=O)N[C@@H](CC(C)C)C(=O)N[C@@H](CC(N)=O)C(N)=O)NC(=O)[C@H](CC(N)=O)NC(=O)[C@H](CC(C)C)NC1=O [Peptide 1906, H-NLSR8LDRLLNS5LN-NH2] (H-NLS[R8]LDRLLN[S5]LN-NH2; staple 4-11)",> 200,> 1250,,,

# More lines, main results first:
Kd ([2]; read-out: SPR KD) [µM],Compound,Ki ([1]; read-out: FP Ki) [µM],"binding and inhibitory properties (SPR/FP) in words, compared to 1907 [2]",Ki [1] [µM],Kd ([2]; SPR KD) [µM]
32.3,"CSCC[C@@H]1NC(=O)[C@H](CC(C)C)NC(=O)[C@H](CCC(=O)O)NC(=O)[C@H](CC(=O)O)NC(=O)[C@H](CC(C)C)NC(=O)[C@H](CCC(=O)O)NC(=O)[C@](C)(NC(=O)[C@@H](NC(=O)[C@H](C)NC(=O)[C@H](CO)NC(C)=O)[C@@H](C)O)CCCCCCC=CCCC[C@@](C)(C(=O)N[C@@H](CO)C(=O)N[C@@H](CC(C)C)C(=O)N[C@@H](CO)C(=O)N[C@@H](CC(=O)O)C(N)=O)NC1=O [Peptide 1916, Ac-SATR8ELDELMS5SLSD-NH2] (Ac-SAT[R8]ELDELM[S5]SLSD-NH2; staple 4-11)",47.5,did not have comparable activity to LD2-derived 1907,,
> 200,"CC(=O)N[C@@H](CC(N)=O)C(=O)N[C@@H](CC(C)C)C(=O)N[C@@H](CO)C(=O)N[C@@H](CCC(=O)O)C(=O)N[C@]1(C)CCCCCCC=CCCC[C@@](C)(C(=O)N[C@@H](CC(N)=O)C(N)=O)NC(=O)[C@H](CCC(=O)O)NC(=O)[C@H](CC(C)C)NC(=O)[C@H](C)NC(=O)[C@H](C)NC(=O)[C@H](CCCNC(=N)N)NC(=O)[C@H](CC(=O)O)NC1=O [Peptide 1925, Ac-NLSER8DRAALES5N-NH2] (Ac-NLSE[R8]DRAALE[S5]N-NH2; staple 5-12)",492,,,
155,"CC(=O)N[C@@H](CC(N)=O)C(=O)N[C@@H](CC(C)C)C(=O)N[C@]1(C)CCCCCCC=CCCC[C@@](C)(C(=O)N[C@@H](CCC(=O)O)C(=O)N[C@@H](Cc2c[nH]c3ccccc23)C(=O)N[C@@H](CC(N)=O)C(N)=O)NC(=O)[C@H](CC(C)C)NC(=O)[C@H](CC(C)C)NC(=O)[C@H](CCCNC(=N)N)NC(=O)[C@H](CC(=O)O)NC(=O)[C@H](Cc2c[nH]c3ccccc23)NC(=O)[C@H](CCC(=O)O)NC1=O [Peptide 1933, Ac-NLR8EWDRLLS5EWN-NH2] (Ac-NL[R8]EWDRLL[S5]EWN-NH2; staple 3-10)",281,worse binding and inhibitory properties compared to 1907,,
68.9,"CC(=O)N[C@@H](CC(N)=O)C(=O)N[C@@H](CC(C)C)C(=O)N[C@@H](CO)C(=O)N[C@@H](CCC(=O)O)C(=O)N[C@@]1(C)CCCC=CCCC[C@@](C)(C(=O)N[C@@H](CC(C)C)C(=O)N[C@@H](CCC(=O)O)C(=O)N[C@@H](CC(C)C)C(=O)N[C@@H](CC(N)=O)C(N)=O)NC(=O)[C@H](CC(C)C)NC(=O)[C@H](CCCNC(=N)N)NC(=O)[C@H](CC(=O)O)NC1=O [Peptide 1919, Ac-NLSES5DRLS5LELN-NH2] (Ac-NLSE[S5]DRL[S5]LELN-NH2; staple 5-9)",38.6,did not show much activity compared to 1907,,
6.96,"CC(=O)N[C@@H](CC(N)=O)C(=O)N[C@@H](CC(C)C)C(=O)N[C@]1(C)CCCCCCC=CCCC[C@@](C)(C(=O)N[C@@H](CCC(=O)O)C(=O)N[C@@H](CC(C)C)C(=O)N[C@@H](CC(N)=O)C(N)=O)NC(=O)[C@H](CC(C)C)NC(=O)[C@H](CC(C)C)NC(=O)[C@H](CCCNC(=N)N)NC(=O)[C@H](CC(=O)O)NC(=O)[C@H](CC(C)C)NC(=O)[C@H](C)NC1=O [Peptide 2009, Ac-NLR8ALDRLLS5ELN-NH2] (Ac-NL[R8]ALDRLL[S5]ELN-NH2; staple 3-10)",26.7,,,
73.1,"CC(=O)N[C@@H](CC(N)=O)C(=O)N[C@@H](CC(C)C)C(=O)N[C@]1(C)CCCCCCC=CCCC[C@@](C)(C(=O)N[C@@H](CCC(=O)O)C(=O)N[C@@H](CC(C)C)C(=O)N[C@@H](CC(N)=O)C(N)=O)NC(=O)[C@H](Cc2c[nH]c3ccccc23)NC(=O)[C@H](CC(C)C)NC(=O)[C@H](CCCNC(=N)N)NC(=O)[C@H](CC(=O)O)NC(=O)[C@H](CC(C)C)NC(=O)[C@H](CCC(=O)O)NC1=O [Peptide 2007, Ac-NLR8ELDRLWS5ELN-NH2] (Ac-NL[R8]ELDRLW[S5]ELN-NH2; staple 3-10)",190,worse binding and inhibitory properties compared to 1907,,
13.7,"CC(=O)N[C@@H](CC(N)=O)C(=O)N[C@@H](CC(C)C)C(=O)N[C@@H](CCCNC(=N)N)C(=O)N[C@@H](CCC(=O)O)C(=O)N[C@@]1(C)CCCC=CCCC[C@@](C)(C(=O)N[C@@H](CCCNC(=N)N)C(=O)N[C@@H](CCC(=O)O)C(=O)N[C@@H](CC(C)C)C(=O)N[C@@H](CC(N)=O)C(N)=O)NC(=O)[C@H](CC(C)C)NC(=O)[C@H](CCCNC(=N)N)NC(=O)[C@H](CC(=O)O)NC1=O [Peptide 1931, Ac-NLRES5DRLS5RELN-NH2] (Ac-NLRE[S5]DRL[S5]RELN-NH2; staple 5-9)",14.5,,,
